Experiment: xn = mol fraction of the nth substance listed

NCCNCCNCCN + O
viscosity [mPa·s]
Settings | 303.15 K | 313.15 K | 323.15 K
100 kPa, x1 = 0.006 | – | 0.78 | –
100 kPa, x1 = 0.014 | – | 0.98 | –
100 kPa, x1 = 0.03 | – | 1.69 | –
100 kPa, x1 = 0.076 | – | 6.61 | –
101 kPa, x1 = 0.0299 | 2.243 | 1.716 | 1.359
101 kPa, x1 = 0.0502 | 5.399 | 3.454 | 2.481
101 kPa, x1 = 0.0759 | 11.81 | 7.786 | 5.213
101 kPa, x1 = 0.1097 | 22.1 | 13.05 | 8.624
101 kPa, x1 = 0.156 | 38.42 | 22.22 | 14.34
101 kPa, x1 = 0.2233 | 60.39 | 32.27 | 20.32
101 kPa, x1 = 0.3302 | 82.48 | 42.63 | 26.01
101 kPa, x1 = 0.5259 | 75.67 | 38.19 | 21.84
101 kPa, x1 = 0.7007 | 50.89 | 27.24 | 15.21
101 kPa, x1 = 0.7994 | 39.76 | 21.64 | 12.67
101 kPa, x1 = 0.9242 | 31.35 | 16.13 | 10.61

CCCCCCC(C)O (stereo not given) + CCCCCCCCCCCCCC
298.15 K, 101 kPa
Settings | viscosity [mPa·s]
x1 = 0.0003 | 2.081
x2 = 0.0555 | 5.619
x2 = 0.0999 | 5.163
x2 = 0.1555 | 4.632
x2 = 0.1998 | 4.238
x2 = 0.2554 | 3.786
x2 = 0.2998 | 3.455
x2 = 0.3555 | 3.081
x2 = 0.3999 | 2.813
x2 = 0.4554 | 2.519
x2 = 0.4999 | 2.314
x2 = 0.5555 | 2.098
x2 = 0.5998 | 1.957
x2 = 0.6554 | 1.82
x2 = 0.7 | 1.741
x2 = 0.7555 | 1.683
x2 = 0.8 | 1.668
x2 = 0.8555 | 1.688
x2 = 0.9 | 1.736
x2 = 0.9553 | 1.835

C[N+](C)(CCO)CCO.[Cl-] + NC(N)=O
100 kPa, x1 = 0.5
Settings | viscosity [mPa·s]
293.15 K | 3865
298.15 K | 2440
303.15 K | 1596
308.15 K | 1065
313.15 K | 724
318.15 K | 514
323.15 K | 368

CCCCCCC(C)O (stereo not given) + CCCCCCCC
298.15 K, 101 kPa
Settings | viscosity [mPa·s]
x2 = 0.0487 | 5.956
x2 = 0.1002 | 5.301
x2 = 0.1498 | 4.654
x2 = 0.2006 | 3.998
x2 = 0.2516 | 3.364
x2 = 0.3003 | 2.796
x2 = 0.3538 | 2.228
x2 = 0.4003 | 1.79
x2 = 0.4466 | 1.411
x2 = 0.5001 | 1.049
x2 = 0.5517 | 0.778
x2 = 0.6002 | 0.59
x2 = 0.6539 | 0.454
x2 = 0.6994 | 0.39
x2 = 0.7449 | 0.366
x2 = 0.8 | 0.376
x2 = 0.8465 | 0.402
x2 = 0.9003 | 0.434
x2 = 0.9521 | 0.441

CN(C)CCN(C)C + O
viscosity [mPa·s], 100 kPa
Settings | 293.15 K | 303.15 K | 313.15 K | 323.15 K
x1 = 0.001 | 1.041 | 0.83 | 0.679 | 0.564
x1 = 0.01 | 1.375 | 1.143 | 0.941 | 0.732
x1 = 0.025 | 2.406 | 1.734 | 1.303 | 1.012
x1 = 0.05 | 5.033 | 3.269 | 2.032 | 1.409
x1 = 0.075 | 8.363 | 4.972 | 2.688 | 1.769
x1 = 0.1 | 11.53 | 6.033 | 3.292 | 2.114
x1 = 0.2 | 12.82 | 7.744 | 4.885 | 3.185
x1 = 0.3 | 7.906 | 5.945 | 4.23 | 3.011
x1 = 0.399 | 3.497 | 2.56 | 1.9 | 1.45
x1 = 0.5 | 1.887 | 1.456 | 1.117 | 0.904
x1 = 0.601 | 1.344 | 1.064 | 0.853 | 0.69
x1 = 0.7 | 1.066 | 0.881 | 0.724 | 0.585
x1 = 0.8 | 0.859 | 0.733 | 0.625 | 0.52
x1 = 0.9 | 0.715 | 0.63 | 0.554 | 0.473

c1ccncc1 + CO
298 K, 101.3 kPa
Settings | viscosity [mPa·s]
x2 = 0.1249 | 0.85
x2 = 0.2338 | 0.82
x2 = 0.4192 | 0.763
x2 = 0.5695 | 0.714
x2 = 0.694 | 0.67
x2 = 0.7987 | 0.631
x2 = 0.8881 | 0.596
x2 = 0.9652 | 0.565

CCCCCCC(C)O (stereo not given) + C1CCCCC1
303.15 K, 101.33 kPa
Settings | viscosity [mPa·s]
x1 = 0.0999 | 0.9208
x1 = 0.2048 | 1.086
x1 = 0.303 | 1.317
x1 = 0.3982 | 1.601
x1 = 0.4667 | 1.847
x1 = 0.5235 | 2.072
x1 = 0.5347 | 2.124
x1 = 0.6961 | 2.908
x1 = 0.7992 | 3.516
x1 = 0.899 | 4.161

c1ccncc1 + CC(O)CO
101 kPa
Settings | viscosity [mPa·s]
293.15 K, x1 = 0.2999 | 15.55
303.15 K, x1 = 0.8 | 1.425
308.15 K, x1 = 0.7001 | 1.795
318.15 K, x1 = 0.4 | 3.855

C[N+](C)(C)CCO.NCCS(=O)(=O)[O-] + O
viscosity [mPa·s], 100 kPa
Settings | x1 = 3.04e-05 | x1 = 5.1e-05 | x1 = 7.04e-05 | x1 = 9.62e-05 | x1 = 0.0001978 | x1 = 0.0004282 | x1 = 0.0006357 | x1 = 0.0009005 | x1 = 0.001375 | x1 = 0.001632
293.15 K | 1.014 | 1.017 | 1.019 | 1.022 | 1.028 | 1.036 | 1.041 | 1.046 | 1.052 | 1.054
298.15 K | 0.904 | 0.907 | 0.91 | 0.913 | 0.922 | 0.932 | 0.939 | 0.946 | 0.954 | 0.958
303.15 K | 0.811 | 0.814 | 0.817 | 0.82 | 0.828 | 0.839 | 0.846 | 0.853 | 0.861 | 0.863
308.15 K | 0.737 | 0.742 | 0.745 | 0.749 | 0.76 | 0.771 | 0.776 | 0.781 | 0.786 | 0.789
313.15 K | 0.675 | 0.68 | 0.684 | 0.688 | 0.699 | 0.709 | 0.715 | 0.72 | 0.723 | 0.724

O=C(Cl)c1ccccc1 + c1ccccc1
303.15 K, 101 kPa
Settings | viscosity [mPa·s]
x2 = 0.1255 | 1.176
x2 = 0.2441 | 1.108
x2 = 0.3564 | 1.04
x2 = 0.4627 | 0.9726
x2 = 0.5637 | 0.9048
x2 = 0.6596 | 0.8369
x2 = 0.7509 | 0.7688
x2 = 0.8379 | 0.7005
x2 = 0.9208 | 0.632
